Experimental data as given in patent publication EP0411183A1, “Ascorbic acid derivative” (NIPPON HYPOX LABORATORIES INCORPORATED, priority 1989, dated 1991).

Key:
[1] = test system: superoxide anion radicals; experiment: Effects on formazan formation in the xanthine-xanthine oxidase-Nitrotetrazolium Blue system; type: biochemical; details: for Inhibition ratio (%) of formazan formation: phosphate buffer pH 7.8, 30°C, 10 minutes; for formazan formation (result in words): summary of Table-3
Experimental: Specimens were added to a 0.05 M phosphate buffer solution (pH 7.8) containing xanthine, EDTA 2Na and Nitrotetrazolium Blue (NTB) so as to provide the respective final concentrations of 5x10⁻⁵ M, 1x10⁻⁴ M and 5x10⁻⁴ M and warmed at 30°C for 3 minutes. Xanthine oxidase (manufactured by Sigma Corp.) was added, and the resulting specimens were warmed at 30°C for 10 minutes to colorimetrically determine formazan formed by superoxide anion radicals. The inhibition ratio of formazan formation was determined from the results at concentrations of 0.5 mM and 4 mM of each specimen.

[2] = Antioxidant action examined by using stable radicals (DPPH reduction activity, M.S. Blois method); type: biochemical; details: 0.1 mM DPPH solution in ethanol, absorbance at 517 nm after 20 minutes; read-out: 50% radical eliminating concentration
Experimental: Test example 1 (Antioxidant action examined by using stable radicals)
Reduction activity of α,-α-diphenyl-β-picrylhydrazyl (DPPH) which was a stable free radical was examined according to the M.S. Blois method (Nature, vol. 181, page. 1199, 1958) and used as an index to antioxidant action. Thus, specimens were added to 3 mℓ of a 0.1 mM DPPH solution in ethanol, and absorbance at a wavelength of 517 nm was measured using a spectrophotometer after 20 minutes. The difference in absorbance from the solvent control [0.5% or less of dimethylformamide (DMF)] was taken as the reduction activity.

Compound: L-5,6-O-isopropylidene-3-O-(3-butanone) ascorbic acid [compound 022]
- Inhibition ratio (%) of formazan formation ([1]; Concentration 0.5 mM): 22.6%
- Inhibition ratio (%) of formazan formation ([1]; Concentration 4 mM): 26.7%
- formazan formation (result in words) [1]: remarkably inhibited formazan formation
- IC50 [2]: 20 µM

Compound: L-5,6-O-isopropylidene-3-O-methylcarbomethylascorbic acid [compound 021]
- Inhibition ratio (%) of formazan formation ([1]; Concentration 0.5 mM): 9.2%
- Inhibition ratio (%) of formazan formation ([1]; Concentration 4 mM): 47.4%
- formazan formation (result in words) [1]: remarkably inhibited formazan formation
- IC50 [2]: 17 µM

Compound: CC1(C)OCC(C2OC(=O)C(O)=C2OCc2ccccn2)O1 [compound 007, L-5,6-O-isopropylidene-3-O-2′-pyridylmethylascorbic acid]
- IC50 [2]: 23 µM
